Measured values reported in article PMC3971408, “Inhibition of triosephosphate isomerase by phosphoenolpyruvate in the feedback-regulation of glycolysis” (Open Biology, 2014).

Columns and labels:
human TPIIle170Thr = molecular target: T1, human TPIIle170Thr (Homo sapiens, UniProt P60174, I171T); assay: enzyme-coupled activity assay with PEP titration; thermal shift ΔTm […]°C; format: biochemical
T1 construct: gene TPI1; 6x-histidine tagged human TPI

[1] = molecular target: T2, human triosephosphate isomerase (TPI) (Homo sapiens, UniProt P60174); assay: enzyme-coupled activity assay with PEP titration (IC50 […]); thermal shift ΔTm […]°C; format: biochemical
T2 construct: gene TPI1; 6x-histidine tagged wild-type human TPI

human TPIIle170Val = molecular target: T3, human TPIIle170Val (Homo sapiens, UniProt P60174, I171V); assay: enzyme-coupled activity assay with PEP titration; thermal shift ΔTm […]°C; format: biochemical
T3 construct: gene TPI1; 6x-histidine tagged human TPI

[2] = molecular target: T4, triosephosphate isomerase (TPI) (Oryctolagus cuniculus, UniProt P00939); assay: co-crystal structure at […] Å; format: binding
T4 construct: gene TPI1; Native rabbit muscle TPI (Sigma); homodimer, 246 of 250 amino acids modelled
T4 sequence (P00939 2-249): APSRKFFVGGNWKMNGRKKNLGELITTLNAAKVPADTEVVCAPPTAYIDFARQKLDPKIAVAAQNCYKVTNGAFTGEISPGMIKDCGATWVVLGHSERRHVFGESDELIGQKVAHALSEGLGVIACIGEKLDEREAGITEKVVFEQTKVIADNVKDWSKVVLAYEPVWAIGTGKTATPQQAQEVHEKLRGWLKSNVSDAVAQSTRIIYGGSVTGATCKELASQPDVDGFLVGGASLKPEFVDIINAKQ

T3 sequence (P60174 2-249 I171V): as the sequence (P00939 2-249) above, with K19Q, N20S, T26G, S118A, I170V counted along it
T1 sequence (P60174 2-249 I171T): as the sequence (P00939 2-249) above, with K19Q, N20S, T26G, S118A, I170T counted along it
T2 sequence (P60174 2-249): as the sequence (P00939 2-249) above, with K19Q, N20S, T26G, S118A counted along it

C=C(OP(=O)(O)O)C(=O)O [PEP, phosphoenolpyruvate]
IC50 (human TPIIle170Thr): 1.54 mM
Ki [1]: 0.23 mM
IC50 (human TPIIle170Val): 1.93 mM
co-crystal structure at 1.55 Å [2]: The electron density map gave a clearly defined and unambiguous shape for PEP bound to the active sites
